BindingDB's records for doi:10.1111/cbdd.12255 (Federal University of Rio De Janeiro, 2014)

Tests used:
[1] = target: T1, Amine oxidase [flavin-containing] B (Homo sapiens, UniProt P27338); assay: MAO Assay; details: pH 7.4; 37 °C
T1 sequence (P27338 whole entry): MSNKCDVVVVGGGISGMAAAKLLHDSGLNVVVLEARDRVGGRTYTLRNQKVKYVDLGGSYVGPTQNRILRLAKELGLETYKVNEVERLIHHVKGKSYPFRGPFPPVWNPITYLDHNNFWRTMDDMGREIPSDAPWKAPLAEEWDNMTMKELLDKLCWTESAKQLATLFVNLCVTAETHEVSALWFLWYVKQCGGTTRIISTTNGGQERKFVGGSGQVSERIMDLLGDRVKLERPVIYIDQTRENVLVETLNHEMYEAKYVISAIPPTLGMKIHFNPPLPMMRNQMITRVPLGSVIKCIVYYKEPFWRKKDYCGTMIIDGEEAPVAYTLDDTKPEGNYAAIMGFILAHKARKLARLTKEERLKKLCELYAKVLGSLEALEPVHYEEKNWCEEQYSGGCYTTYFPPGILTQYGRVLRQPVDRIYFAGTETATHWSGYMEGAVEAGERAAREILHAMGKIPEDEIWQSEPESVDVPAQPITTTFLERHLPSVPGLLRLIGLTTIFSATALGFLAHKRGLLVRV
Method: (§1) The reaction mixture (final volume 200 µL) contained 5 µg/mL MAO-A or MAO-B in a 50 mM sodium phosphate buffer pH 7.4, 1 mM p-tyramine (substrate for MAO-A) or 1 mM benzyl-amine (substrate for MAO-B), 1 U/mL HRP, and 200 µM AR was incubated, in the presence or absence of the inhibitors, at 37 °C for 45 min. The enzyme plus inhibitors were incubated at 37 °C for 20 min followed by the addition of the substrates, HRP and AR. The inhibitors were dissolved in 100% DMSO, and equivalent concentrations of DMSO alone (1-2%) were used as controls. Clorgyline (MAO-A inhibitor) or pargyline (MAO-B inhibitor) at 5 µM concentration was used as positive control for inhibition.

[2] = target: T2, Amine oxidase [flavin-containing] A (Homo sapiens, UniProt P21397); assay: MAO Assay; details: pH 7.4; 37 °C
T2 sequence (P21397 whole entry): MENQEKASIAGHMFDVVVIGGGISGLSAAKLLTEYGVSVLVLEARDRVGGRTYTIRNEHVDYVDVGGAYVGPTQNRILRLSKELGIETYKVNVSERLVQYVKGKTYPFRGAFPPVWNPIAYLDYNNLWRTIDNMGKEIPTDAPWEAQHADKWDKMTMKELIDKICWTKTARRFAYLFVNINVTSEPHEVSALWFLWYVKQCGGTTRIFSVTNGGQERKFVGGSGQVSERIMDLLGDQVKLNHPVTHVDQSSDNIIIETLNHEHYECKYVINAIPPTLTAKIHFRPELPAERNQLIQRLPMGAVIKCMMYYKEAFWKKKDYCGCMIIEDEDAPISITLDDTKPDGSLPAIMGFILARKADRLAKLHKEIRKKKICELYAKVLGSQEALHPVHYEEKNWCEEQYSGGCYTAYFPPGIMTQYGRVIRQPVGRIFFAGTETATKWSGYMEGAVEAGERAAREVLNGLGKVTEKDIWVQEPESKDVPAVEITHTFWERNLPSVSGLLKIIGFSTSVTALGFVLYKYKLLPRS
Method: as §1

Structure (SMILES) | Ki [1] | Ki [2]
NCCCN(CCCC=Nc1cc(O)c2ccccc2c1O)Cc1ccccc1 [2‐({4‐[(3‐ aminopropyl)(benzyl)amino]butyl}amino)naphthalene‐ 1,4‐dione (Compound b2)] | 12 µM | 28 µM
CC(C)=Cc1c(N=CCCCN(CCCN)Cc2ccccc2)c(O)c2ccccc2c1O [2‐({4‐[(3‐aminopropyl)(benzyl)amino]butyl}amino)‐3‐ (2‐methylprop‐1‐en‐1‐yl)naphthalene‐1,4‐dione (Compound c2)] | 58 µM | 63 µM
CC(C)C=C1C(=O)C(=O)c2ccccc2C1=O | 18 µM | 35 µM
CC(C)=CCc1c(N=CCCCN(CCCN)Cc2ccccc2)c(O)c2ccccc2c1O [2‐({4‐[(3‐aminopropyl)(benzyl)amino]butyl}amino)‐3‐ (3‐methylbut‐2‐en‐1‐yl)naphthalene‐1,4‐dione (Compound a2)] | 40 µM | 22 µM
CC(C)=CCC1C(=O)C(=O)c2ccccc2C1=O (centres undefined) [4-hydroxy-3-(3-methylbut-2-enyl)naphthalene-1,2-dione] | 59 µM | 
